Reference: patent US7146277B2, “NMR assisted design of high affinity ligands for structurally uncharacterized proteins” (priority 2000, dated 2006)

How the values were obtained:
[1] = biological target: T1, mannose-binding protein (MBP) (Rattus norvegicus, UniProt P19999); experiment: Binding of AMM to mannose-binding protein (previously determined binding constant, used for the bound fraction); settings: 1 mM MBP-A, 1 mM AMM; calculated from dissociation constant and concentrations
T1 construct: made in house; host or cells: E. coli JA221
From the text: Interpretation of residual dipolar contributions of a ligand in a protein-bound state will, in general, require separation of the contribution from the free state using known binding properties. The observed residual dipolar couplings measured in the AMM/MBP complex (Table 2, Dobs) will be a population weighted average from the free (Nfree) and bound (Nbound) states, such that: Dobs=NfreeDfree+NboundDbound (1) The fraction of AMM free and bound (Nfree and Nbound) can be calculated from the dissociation constant and known protein-ligand concentrations. Using a previously determined binding constant (approx. 1 mM) approximately 40% of AMM is in fact bound to MBP leaving approximately 60% of AMM free in solution. Order Tensor Calculation in AMM

[2] = biological target: T1, mannose-binding protein (MBP); settings: AMM/MBP, previously determined; read-out: binding constant; cited from earlier work
GnT-V = biological target: T2, GnT-V (Homo sapiens, UniProt Q09328); settings: cited from earlier work; for Kd: GnT-V, known binding constant
T2 construct: The soluble form of recombinant human GnT-V was expressed in CHO cells; made in house; host or cells: CHO cells
T2 sequence (Q09328 31-741 limits assumed): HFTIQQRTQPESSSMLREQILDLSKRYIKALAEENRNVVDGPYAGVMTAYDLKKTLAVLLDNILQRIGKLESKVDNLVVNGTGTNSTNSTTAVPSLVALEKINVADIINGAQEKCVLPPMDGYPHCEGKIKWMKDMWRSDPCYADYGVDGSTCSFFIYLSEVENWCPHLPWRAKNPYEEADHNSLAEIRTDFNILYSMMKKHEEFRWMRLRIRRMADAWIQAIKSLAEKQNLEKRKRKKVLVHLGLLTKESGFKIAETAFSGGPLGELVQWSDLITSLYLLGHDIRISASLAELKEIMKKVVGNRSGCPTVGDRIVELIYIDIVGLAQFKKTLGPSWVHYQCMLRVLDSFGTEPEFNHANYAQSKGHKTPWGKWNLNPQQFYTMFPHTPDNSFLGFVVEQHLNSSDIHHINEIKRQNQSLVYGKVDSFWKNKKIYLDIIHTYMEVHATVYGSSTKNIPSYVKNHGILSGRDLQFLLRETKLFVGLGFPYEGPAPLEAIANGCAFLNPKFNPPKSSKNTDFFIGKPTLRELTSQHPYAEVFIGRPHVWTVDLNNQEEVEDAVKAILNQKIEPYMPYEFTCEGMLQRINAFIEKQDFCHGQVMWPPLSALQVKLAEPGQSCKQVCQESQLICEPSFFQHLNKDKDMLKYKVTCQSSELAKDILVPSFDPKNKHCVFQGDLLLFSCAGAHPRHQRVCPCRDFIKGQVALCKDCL

COC1O[C@H](CO)[C@@H](O)[C@H](O)[C@@H]1O (stereo partly drawn) [AMM, α-methyl mannoside]
fraction of AMM bound to MBP [1]: approximately 40% | Kd [2]: ~1000 µM

O=c1ccn([C@@H]2O[C@H](COP(=O)(O)OP(=O)(O)O)[C@@H](O)[C@H]2O)c(=O)[nH]1 [UDP, uridine diphosphate]
Kd (GnT-V): 1100 µM | type of inhibition of GnT-V (GnT-V): competitive inhibitor

CC(=O)N[C@H]1[C@@H](OP(=O)(O)OP(=O)(O)OC[C@H]2O[C@@H](n3ccc(=O)[nH]c3=O)[C@H](O)[C@@H]2O)O[C@H](CO)[C@@H](O)[C@@H]1O [UDP-GlcNAc]
Kd (GnT-V): 1100 µM
